Patent US20230203081A1, “LINCOSAMIDE ANTIBIOTICS AND USES THEREOF” (President and Fellows of Harvard College, priority 2020, published 2023)

Columns and labels:
ribosome = assay: Toeprinting analysis (primer extension inhibition) in cell-free translation, ermBL and ermDL templates; type: biochemical; settings: 50 μM
Procedure: Toeprinting analysis: The ermBL DNA template for toeprinting was generated by a 4-primer cross-over PCR using primers T7, NV1, ermB3-F and ermB3-R. The ermDL template was generated in the same way using primers RLR-fwd, RLR-rev, T7-SD-fwd and T7-SD-rev. In vitro translation in the PURExpress system (New England Biolabs) and toeprinting analysis were carried out as described previously. […]
Primer sequences used for toeprinting are as follows: T7 (TAATACGACTCACTATAGGG); NV1 (GGTTATAATGAATTTTGCTTATTAAC); ermB3-F (TAATACGACTCACTATAGGGCTTAAGTATAAGGAGGAAAAAATATGTTGGTATTCCAAATGCGTAATGTAGATAAAACATCTAC); ermB3-R (GGTTATAATGAATTTTGCTTATTAACGATAGAATTCTATCACTTATTTCAAAATAGTAGATGTTTTATCTACATTACG); RLR-fwd (GGAGGAAAAAATATGACACACTCAATGAGACTTCGTATTTTCCC); RLR-rev (CTATCACTTACAAAGTTGGGAAAATACGAAGTCTCATTGAG); T7-SD-fwd (TAATACGACTCACTATAGGGCTTAAGTATAAGGAGGAAAAAATATGACACACTCAATG); T7-SD-rev (GGTTATAATGAATTTTGCTTATTAACGATAGAATTCTATCACTTACAAAGTTGGGAAAAT).

E. coli strain SQ110DTC = assay: Selection of FSA-513018b resistant mutants in SQ110DTC; type: cell-based; settings: SQ110DTC plated on agar containing FSA-513018b
Procedure: […]. […] Approximately 20 colonies appeared on both plates after incubation at 37° C. for 24 h. The segment of the 23S rRNA gene corresponding to domains V and VI of the 23S rRNA was PCR-amplified from 14 randomly selected colonies using the primers 2020R (CCCGAGACTCAGTGAAATTGAACTC) and L2904 (AAG GTT AAG CCT CAC GG). PCR products were sequenced using the primer L2667 (GGTCCTCTCGTACTAGGAGCAG).

[1] = system: Enterococcus faecium and Enterococcus faecalis strains resistant to vancomycin, linezolid, azithromycin, ciprofloxacin, levofloxacin, gentamicin, and …; type: cell-based; settings: panel of E. faecium and E. faecalis strains resistant to vancomycin, doxycycline
Procedure: Minimum inhibitory concentrations (MICs) were determined by broth microdilution method or agar dilution method following the Clinical and Laboratory Standards Institute guidelines. Standard bacterial strains were obtained from American Type Culture Collection (ATCC). Other bacterial strains were obtained from hospitals and commercial sources, so noted in Table 11. Before the start of the MIC experiment, standard and test compound stock solutions were prepared in dimethyl sulfoxide (DMSO, Aldrich D2650) at a stock concentration of 5,120 μg/mL. The compound concentration range typically employed for each experiment was 128-0.06 μg/mL (2.5% final DMSO concentration). Clindamycin was used as a comparator in all experiments and each experiment was performed in triplicate. Specialized procedures were employed for streptococcal and anaerobic strains. All other bacterial strains were sub-cultured on blood agar plates (tryptic soy agar with 5% sheep blood, Hardy Diagnostics) and incubated overnight at 35° C. Organisms were suspended in cation-adjusted Mueller-Hinton broth (CaMHB, BD 212322) and optical density was adjusted to 0.5 McFarland standard. Suspensions were further diluted to obtain a final inoculum of 5×10^5 CFU/mL for broth microdilution experiments.

[2] = Microsomal intrinsic clearance (Clint,mic), species h; type: in vitro ADME, human; set-up: unit not given here
HepG2 = assay: Mitochondrial ToxGlo assay; type: cell-based, human
Procedure: Mammalian cell experiments: All compounds were dissolved in sterile DMSO to a stock concentration of 20 μM and aliquoted prior to freezing at −20° C. Aliquots were limited to a maximum of 3 freeze-thaw cycles. A549 (human pulmonary carcinoma; […]) cells were cultured in Dulbecco's Modified Eagle Medium (DMEM) supplemented with 10% fetal bovine serum. K562 (human chronic myelogenous leukemia; […]) cells were cultured in Iscove's Modification of DMEM (IMDM) media supplemented with 10% fetal bovine serum. HCT116 (human colorectal carcinoma; […]) cells were cultured in McCoy's 5a (Iwakata & Grace Modification) media supplemented with 10% fetal bovine serum. HepG2 (human hepatocellular carcinoma; […]) cells were cultured in Eagle's Minimum Essential Medium (EMEM) supplemented with 10% fetal bovine serum. All cell cultures were maintained in a 5% CO2 incubator at 37° C.
Mitochondrial toxicity assays were conducted using the Promega Mitochondrial ToxGlo assay, pursuant to the manufacturer's protocol.

[3] = Mouse pharmacokinetics i.v. and p.o.; set-up: species or system mice; settings: in vivo, 60 mg/kg
[4] = system: susceptible S. aureus and E. faecium strains; assay: Post-antibiotic effect (PAE) and post-antibiotic sub-MIC effect (PA-SME); type: cell-based; settings: following brief exposure; result in words
Procedure: Post-antibiotic and post-antibiotic sub-MIC effect: Measurements of PAE and PA-SME durations were performed according to the methods described by Odenholt-Tornqvist and co-workers. […] A flask containing the unexposed bacterial strain was left as untreated control. Post-exposure, 100 μL of bacterial culture was diluted in 900 μL of sterile CaMHB; 100 μL of this diluted sample was immediately diluted further in 19.9 mL of sterile CaMHB (1:2,000 final dilution). […] Flasks were incubated at 37° C. in a shaker incubator (110 rpm). Samples (100 μL from each flask per time point) were collected at 0, 1, 3, 6, and 24 h from each flask and were serially diluted. From each dilution, 100 μL and 10 μL from each dilution were plated in duplicate on TSA plates. Plates were incubated overnight at 35° C. to determine the bacterial counts (limit of detection=20 CFU/plate or 2×10^2 CFU/mL). These counts were plotted against time with linear interpolation between time points to obtain the growth-kinetic curves. PAE and PA-SME were determined from these curves using the formulae: […]
where T is the time required for bacteria previously exposed to antibiotic to multiply 1 log10 above counts immediately following dilution, and C is the corresponding time required for untreated culture to do the same; and […]

CSC1O[C@H]([C@H](NC(=O)[C@H]2NC[C@@H]3C[C@H](CC(C)C)CCO[C@H]32)[C@H](C)Cl)C(O)[C@@H](O)[C@H]1O (stereo partly drawn) [FSA-513018b]
translation arrest at the start codons of model ORFs (toeprinting) (ribosome): firmly locked the ribosome at the start codons, allowing virtually no escape
frequency of resistant clones (E. coli strain SQ110DTC): ~10^−8
MICs [1]: ≤ 2 µg/mL
Clint,mic [2]: 34
effect on membrane integrity (HepG2; HepG2, Mitochondrial ToxGlo): no effect
effect on mitochondrial function (HepG2; HepG2, Mitochondrial ToxGlo (ATP production)): no effect
AUC ([3]; iv): 6800 ± 1300 ng·h/mL
Cmax ([3]; iv): 7900 ± 3000 ng/mL
MRT ([3]; iv): 1.2 h
clearance ([3]; iv): 148 mL/min/kg
Vd ([3]; iv, read-out: Vss): 12.5 ± 0.4 L/kg
AUC ([3]; po): 1600 ± 400 ng·h/mL
Cmax ([3]; po): 1600 ± 700 ng/mL
bioavailability ([3]; po): 24%
post-antibiotic effect on bacterial growth [4]: prolonged effects on bacterial growth
